Data taken from patent publication US8067628B2 (priority 2008, dated 2011).
Like-named read-outs stand apart in the source and are kept apart here.

Experiments:
[1] = format: physicochemical
Protocol: Distilled water used in the synthesis required preliminary preparation to remove oxygen dissolved therein. To this end, a flow of inert gas (argon or nitrogen) was passed through a flask with distilled water for 30 minutes. 0.84 grams (3 mmol) iron sulphate heptahydrate were dissolved in 12 ml prepared distilled water. To this solution, 0.40 g (3.5 mmol) cystamine hydrochloride dissolved in 8 ml water was added to this solution. Nitrogen monoxide flow prepared according to the technique [Yu. V. Karyakin and I. I. Angeov. Chistiye khimicheskiye veshchestva (Pure chemical substances), Moscow: Khimiya publishing house, 1974, 23] was passed through the prepared solution for 1 to 1.5 hours at ˜40° C. until crystals were formed in the solution. Reaction mixture was then allowed to stand at 6 to 8° C. for 15 to 20 hrs; a formed brown-red fine crystalline precipitate was filtered off and dried in air for 24 hours. Yield was […] (16.5%).
Di-μ-penicillamine-tetranitrosyl di-iron sulphate (Fe2S3N6C10H32O17) (II) was prepared by reacting iron sulphate (II) with D-penicillamine in a ratio 1:3. The reaction was carried out using a standard vacuum line and Shlenk's technology under nitrogen at room temperature. Oxygen was preliminary removed from water using the method of triplicate freezing and pumping off under vacuum. […]

[2] = NO-donor activity, sensor electrode amiNO-700 in water; conditions: aerobic aqueous solutions; for spontaneous NO generation: 25° C., no chemo-, photo- or enzymatic activation; for duration of NO release: compared with binuclear nitrosyl iron complexes with aromatic thiolyls
Protocol: The sensor electrode “amiNO-700” of the system “inNO Nitric Oxide Measuring System” (Innovative Instruments, Inc., Tampa, Fla., USA) was used to determine NO generated by the complexes I and II in water. NO concentration was recorded for ˜1,600 seconds (with a step of 0.2 seconds) with concentration of NO donor (0.1 μmol). A standard aqueous solution of NaNO2 (100 μmol) to which a mixture of 0.12M KCl and 2 ml 1M H2SO4 in 18 ml water was added was used to calibrate the electrochemical sensor. All the experiments were carried out in aerobic solutions at temperature 25° C. pH of solutions was measured using the membrane pH-meter “HI 8314” (HANNA Instruments, Germany).

[3] = tested on: line K562 human erythroblastic leukemia and A549 non-small cell lung cancer cells; assay: Cytotoxicity, MTT-test on human cancer cells in vitro; format: cell-based
Protocol: Cells of line K562 human erythroblastic leukemia and A549 non-small cell lung cancer were used as the study object. The cells were grown in the RMPI1640 medium comprising 10% fetal bovine serum at 37° C., 5% CO2 and 100% humidity.
The cytotoxic activity testing was carried out by the standard MTT-test using 96-well plates. Seeding density of cells was 5,000 cells in a well. The cells K562 and A549 were incubated with the complexes I and II at concentrations 1 μM, 10 μM or 100 μM for 72 hours.
MTT-test is based on the capability of dehydrogenases of live cells to reduce unstained MTT-reagent to the blue crystals of formazan crystals soluble in dimethylsulfoxide (DMSO). The optic absorption of stained DMSO solutions was measured on an automated counter. The cytotoxic activity was assessed in percent by the survival of the cells and calculated according to the formula: (mean value of optic absorption in test samples/mean absorption in the control)×100. IC50 was determined by a “dose-effect” curve.

[4] = tested on: line K562 cells of human erythroblast leukemia; assay: Apoptotic activity, caspase-3/-7 FLICA (FAM-DEVD-FMK) flow cytometry; format: cell-based; conditions: incubation 75 hours
Protocol: A method for determining activity of caspases is based on the use of fluorochromic inhibitors of caspases (FLICA). These inhibitors are capable of penetrating into a cell while not being cytotoxic. Within the cell FLICA-inhibitor is covalently bound to active caspase.
The freeze-dried reagent FAM-DEVD-FMK for determining caspase-3 and caspase-7 was experimentally used to test apoptotic cells. When FAM-DEVD-FMK is added to a cellular population of cells, it penetrates into each cell wherein covalent binding thereof to a large subunit of an active caspase heterodimer occurs and thus, it inhibits enzymatic activity. The reagent covalently bound to the enzyme remains inside the cell. […]
Upon termination of incubation term, the cells were centrifuged for 5 minutes at 1,200 rpm at room temperature (RT). […] Sample aliquots of induced and non-induced cells were taken, 2 μl reagent propidium iodide (PI) ready for use were added and the mixture was incubated at RT for 10 minutes to stain dead cells.
Fluorescence of all cell specimens was analyzed on a liquid citometer Backton Dikenson Fascaliber using a laser with 488 nm wavelength. […] In a left lower quadrant live cells were determined; in a right lower quadrant positive FLICA cells (FLICA+) were determined; in a left upper quadrant stained PI cells were determined, and in a right upper quadrant stained PI and FLICA+ cells were determined. […]

| Substance | stability of polycrystals in air [1] | spontaneous NO generation [2] | duration of NO release [2] | IC50 [3] | cells in apoptosis [4] | initiation of caspase 3 and 7 activity / induction of apoptosis ([4]; concentration 50 μl) | stability of product in the absence of inert atmosphere [1] | IC50 ([3]; MTT-test, 72 hours, K562 and A549 cells (cell line of the value not stated), read-out: IC50 (cytotoxic activity, cell survival)) |
| --- | --- | --- | --- | --- | --- | --- | --- | --- |
| Di-μ-cystamine tetranitrosyl di-iron sulphate [complex I] | remain stable in air at room temperature for a rather long time | generate NO in aerobic aqueous solutions | prolonged release of NQ | 50 µM | 77% | exhibited capability of initiating caspase 3 and 7 activity | – | – |
| Di-μ-penicillamine-tetranitrosyl di-iron sulphate [complex II] | – | generate NO in aerobic aqueous solutions | prolonged release of NQ | – | – | – | stable in the absence of inert atmosphere for a long time | 100 µM |
